Results as given in article PMC6067974 (Neuropharmacology, 2018).
Where two headings read alike, the source gives them in different places. Marks after values point to notes of the source that are not given here.

Legend:
A2BAR [1] = settings: read-out: Ki, A2BAR (h), human, cited from earlier work
mouse A1AR [2] = target: T1, mouse A1AR (Mus musculus, UniProt Q60612); assay: Radioligand binding, mouse A1AR; settings: for A1AR rat: mouse ratio: ratio of rat Ki to mouse Ki at A1AR
T1 sequence (Q60612 1-326): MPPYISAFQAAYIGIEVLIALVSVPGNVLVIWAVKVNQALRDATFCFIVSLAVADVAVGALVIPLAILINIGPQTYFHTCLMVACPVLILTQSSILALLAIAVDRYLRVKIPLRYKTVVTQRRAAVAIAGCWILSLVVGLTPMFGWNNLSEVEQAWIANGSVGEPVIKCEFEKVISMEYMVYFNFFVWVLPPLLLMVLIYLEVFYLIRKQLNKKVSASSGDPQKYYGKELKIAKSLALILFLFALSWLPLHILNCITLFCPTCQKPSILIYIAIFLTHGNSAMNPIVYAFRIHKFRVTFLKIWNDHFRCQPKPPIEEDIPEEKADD

mouse A2AAR = mouse A2AAR (Mus musculus, UniProt Q60613); assay: Radioligand binding, mouse A2AAR
mouse A3AR [3] = target: T2, mouse A3AR (Mus musculus, UniProt Q61618); assay: Radioligand binding, mouse A3AR
T2 sequence (Q61618 1-319): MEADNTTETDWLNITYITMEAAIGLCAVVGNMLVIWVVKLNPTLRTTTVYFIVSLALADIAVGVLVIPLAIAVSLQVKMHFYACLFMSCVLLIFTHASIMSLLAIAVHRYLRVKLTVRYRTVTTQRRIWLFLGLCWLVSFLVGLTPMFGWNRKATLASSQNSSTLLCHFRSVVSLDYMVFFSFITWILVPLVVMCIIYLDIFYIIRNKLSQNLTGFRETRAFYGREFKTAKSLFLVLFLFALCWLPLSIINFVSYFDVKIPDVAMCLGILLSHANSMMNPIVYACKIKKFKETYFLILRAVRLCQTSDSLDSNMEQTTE

mice [4] = assay: Telemetric monitoring of Tb and physical activity in mice; format: in vivo, mouse; settings: for block of PSB-0777-induced hypothermia: i.p. at -15 min, then PSB-0777 1 mg/kg i.p.
[5] = target: M3 acetylcholine receptor (Homo sapiens, UniProt P20309); assay: PDSP off-target radioligand binding, M3 acetylcholine receptor
[6] = cited from earlier work
mouse A3AR [7] = target: T2, mouse A3AR; settings: read-out: mouse Ki, A3AR, ref Carlin et al., 2017; cited from earlier work
A1AR = settings: cited from earlier work
[8] = target: serotonin transporter (SERT) (Homo sapiens, UniProt P31645); assay: PDSP off-target radioligand binding, serotonin transporter
human 5HT2B receptor = human 5HT2B receptor (Homo sapiens, UniProt P41595); assay: PDSP off-target radioligand binding, 5HT2B receptor
mouse A1AR [9] = target: T1, mouse A1AR; settings: ref Carlin et al., 2017, cited from earlier work
[10] = target: human β3 adrenergic receptor (Homo sapiens, UniProt P13945); settings: read-out: Ki, human β3 adrenergic receptor; PDSP screen
[11] = target: human β1 adrenergic receptor (Homo sapiens, UniProt P08588); settings: read-out: Ki, human β1 adrenergic receptor; PDSP screen
brown adipose tissue = settings: by stimulation of brown adipose tissue; ref Gnad et al., 2014; cited from earlier work
A2BAR [12] = settings: rat; ref Hide et al., 1992; cited from earlier work
mice [13] = settings: intraarterial CGS-21680; wild type mice; ref Ledent et al., 1997; cited from earlier work
mice [14] = assay: Indirect calorimetry; settings: CGS-21680 0.25 mg/kg, i.p.; C57BL/6J mice
[15] = test system: 45 human receptors, channels, and transporters; assay: PDSP off-target screen, whole panel; format: binding; settings: at <10 μM
mice [16] = settings: cited from earlier work
[17] = SCH442416 3 mg/kg, i.p., alone, data not shown
[18] = read-out: mouse Ki, A1AR, mouse, current results, ± SEM
[19] = read-out: mouse Ki, A2AAR, mouse, current results, ± SEM
[20] = PSB-0777 ≤3 mg/kg, i.p., wild type mice
[21] = CGS-21680 0.01–1 mg/kg, i.p., C57BL/6J mice
[22] = preladenant 1 mg/kg, i.p., alone, data not shown

Chain of mouse A2AAR (Q60613 whole entry): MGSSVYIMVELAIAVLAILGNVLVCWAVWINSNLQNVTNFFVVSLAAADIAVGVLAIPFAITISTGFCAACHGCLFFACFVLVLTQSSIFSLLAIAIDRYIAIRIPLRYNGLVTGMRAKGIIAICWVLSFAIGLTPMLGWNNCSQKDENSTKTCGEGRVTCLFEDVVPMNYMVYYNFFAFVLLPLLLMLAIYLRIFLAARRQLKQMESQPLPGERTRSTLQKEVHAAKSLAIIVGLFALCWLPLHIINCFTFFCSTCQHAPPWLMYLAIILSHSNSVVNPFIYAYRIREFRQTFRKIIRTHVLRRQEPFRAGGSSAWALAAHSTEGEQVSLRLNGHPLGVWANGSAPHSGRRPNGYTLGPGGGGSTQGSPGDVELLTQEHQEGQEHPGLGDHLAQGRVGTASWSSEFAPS
Chain of human 5HT2B receptor (P41595 whole entry): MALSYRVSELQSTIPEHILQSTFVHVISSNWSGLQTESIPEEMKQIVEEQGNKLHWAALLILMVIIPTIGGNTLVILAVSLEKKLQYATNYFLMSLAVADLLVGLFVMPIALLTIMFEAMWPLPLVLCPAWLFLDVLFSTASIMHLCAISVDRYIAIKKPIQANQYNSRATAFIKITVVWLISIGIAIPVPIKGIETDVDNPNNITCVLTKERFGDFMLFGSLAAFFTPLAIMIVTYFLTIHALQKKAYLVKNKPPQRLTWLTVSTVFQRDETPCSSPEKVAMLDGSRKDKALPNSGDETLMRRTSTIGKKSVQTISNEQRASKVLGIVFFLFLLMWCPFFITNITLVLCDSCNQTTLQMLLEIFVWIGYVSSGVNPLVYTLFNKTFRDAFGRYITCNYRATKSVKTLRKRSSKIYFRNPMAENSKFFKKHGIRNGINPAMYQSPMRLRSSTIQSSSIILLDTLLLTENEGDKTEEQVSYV
Chain of human β1 adrenergic receptor (P08588 whole entry): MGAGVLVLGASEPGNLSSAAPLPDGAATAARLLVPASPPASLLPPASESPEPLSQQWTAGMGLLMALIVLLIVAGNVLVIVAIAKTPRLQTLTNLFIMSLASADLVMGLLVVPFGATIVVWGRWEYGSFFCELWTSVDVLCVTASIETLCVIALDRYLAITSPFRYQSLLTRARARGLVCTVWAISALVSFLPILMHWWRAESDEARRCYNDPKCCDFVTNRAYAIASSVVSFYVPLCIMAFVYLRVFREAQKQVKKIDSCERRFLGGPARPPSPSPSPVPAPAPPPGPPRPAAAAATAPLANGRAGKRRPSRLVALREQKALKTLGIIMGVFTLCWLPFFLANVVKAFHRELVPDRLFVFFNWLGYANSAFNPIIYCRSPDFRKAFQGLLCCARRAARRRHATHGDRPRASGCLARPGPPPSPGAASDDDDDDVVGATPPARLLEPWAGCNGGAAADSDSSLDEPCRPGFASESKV
Chain of M3 acetylcholine receptor (P20309 whole entry): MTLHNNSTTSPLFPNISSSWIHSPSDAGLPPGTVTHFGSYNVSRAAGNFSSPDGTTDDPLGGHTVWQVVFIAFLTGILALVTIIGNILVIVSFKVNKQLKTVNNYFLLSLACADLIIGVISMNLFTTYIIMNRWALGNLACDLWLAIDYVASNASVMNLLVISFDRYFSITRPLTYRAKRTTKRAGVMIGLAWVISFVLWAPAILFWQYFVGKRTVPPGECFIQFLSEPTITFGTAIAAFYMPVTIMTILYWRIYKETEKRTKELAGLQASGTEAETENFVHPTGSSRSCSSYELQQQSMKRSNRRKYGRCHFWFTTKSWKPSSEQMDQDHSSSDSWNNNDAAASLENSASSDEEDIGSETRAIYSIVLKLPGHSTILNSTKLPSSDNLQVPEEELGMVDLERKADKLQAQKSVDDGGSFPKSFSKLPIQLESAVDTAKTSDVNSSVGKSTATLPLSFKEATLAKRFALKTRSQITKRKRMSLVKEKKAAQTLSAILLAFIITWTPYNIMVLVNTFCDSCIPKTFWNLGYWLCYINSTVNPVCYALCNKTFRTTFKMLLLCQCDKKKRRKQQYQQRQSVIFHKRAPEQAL
Chain of serotonin transporter (SERT) (P31645 whole entry): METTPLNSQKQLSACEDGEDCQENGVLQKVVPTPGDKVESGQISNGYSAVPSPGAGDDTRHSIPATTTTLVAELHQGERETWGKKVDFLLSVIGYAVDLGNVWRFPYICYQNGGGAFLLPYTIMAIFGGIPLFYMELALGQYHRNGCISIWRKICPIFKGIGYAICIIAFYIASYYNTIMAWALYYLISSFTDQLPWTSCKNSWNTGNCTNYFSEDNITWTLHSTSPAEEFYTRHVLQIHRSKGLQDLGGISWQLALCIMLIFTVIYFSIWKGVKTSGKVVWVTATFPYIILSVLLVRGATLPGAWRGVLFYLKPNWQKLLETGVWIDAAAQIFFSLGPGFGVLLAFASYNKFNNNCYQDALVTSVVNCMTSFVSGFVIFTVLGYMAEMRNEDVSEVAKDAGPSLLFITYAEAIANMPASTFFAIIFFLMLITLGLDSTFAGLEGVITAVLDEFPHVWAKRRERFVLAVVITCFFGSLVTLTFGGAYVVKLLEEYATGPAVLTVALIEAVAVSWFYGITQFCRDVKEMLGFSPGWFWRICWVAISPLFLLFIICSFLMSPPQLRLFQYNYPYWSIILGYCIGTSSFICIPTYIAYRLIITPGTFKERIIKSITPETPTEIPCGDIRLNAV
Chain of human β3 adrenergic receptor (P13945 whole entry): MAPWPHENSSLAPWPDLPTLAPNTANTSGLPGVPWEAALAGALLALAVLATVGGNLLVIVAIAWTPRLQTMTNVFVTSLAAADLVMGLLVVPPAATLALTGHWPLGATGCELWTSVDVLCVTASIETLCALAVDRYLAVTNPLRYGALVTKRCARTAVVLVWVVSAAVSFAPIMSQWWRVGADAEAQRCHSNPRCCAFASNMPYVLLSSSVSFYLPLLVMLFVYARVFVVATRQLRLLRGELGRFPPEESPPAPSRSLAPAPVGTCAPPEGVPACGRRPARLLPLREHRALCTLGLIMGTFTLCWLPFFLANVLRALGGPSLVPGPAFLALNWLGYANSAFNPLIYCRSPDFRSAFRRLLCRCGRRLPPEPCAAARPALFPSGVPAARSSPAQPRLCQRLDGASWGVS

In the case of `CNC(=O)c1cnn(-c2nc(N)c3ncn([C@@H]4O[C@H](CO)[C@@H](O)[C@H]4O)c3n2)c1` [regadenoson, 1-[6-amino-9-[(2R,3R,4S,5R)-3,4-dihydroxy-5-(hydroxymethyl)oxolan-2-yl]purin-2-yl]-N-methylpyrazole-4-carboxamide], the Ki (A2BAR [1]; ref Gao et al., 2001) is given as over 100000 nM, the Ki (mouse A1AR [2]) is given as 7.75 ± 0.05 nM and the “binding to A1AR more tightly than to A2AAR” value (mouse A1AR [2]; mouse binding, Table 1) is given as 10 fold. The “binding to mouse A1AR better than human A1AR” value (mouse A1AR [2]; mouse vs human A1AR (human value Gao et al., 2001)) was over 1000 fold, the Ki (mouse A2AAR) was 77.2 ± 6.3 nM and the inhibition at 10 µM (mouse A3AR [3]; read-out: % inhibition at 10 μM, mouse A3AR) was 7 ± 2%.
In the case of `Nc1ncnc2c1ncn2[C@@H]1O[C@H](CO)[C@@H](O)[C@H]1O` [adenosine], the “Tb response (hypothermia)” value (mice [4]; adenosine 100 mg/kg, i.p., Adora1−/−;Adora3−/− mice) is reported as “robust hypothermia”.
In the case of `COc1ccc(CCCn2ncc3c2nc(N)n2nc(-c4ccco4)nc32)cc1` [SCH442416, 2-(2-furyl)-7-[3-(4-methoxyphenyl)propyl]-7H-pyrazolo[4,3-e][1,2,4]triazolo[1,5-c]pyrimidin-5-amine], the Ki [5] is given as 6800 nM, the brain penetrant ([6]; ref Todde et al., 2000) is given as “yes ^j” and the Ki (A2BAR [1]; ref Todde et al., 2000) is given as over 10000 nM. For the same compound, the Ki (mouse A3AR [7]) was over 10000 nM, the Ki (A1AR; read-out: rat Ki, A1AR, ref Todde et al., 2000) was 1820 nM and the Ki [8] was 6100 nM. For the same compound, the “block of PSB-0777-induced hypothermia” value (mice [4]; SCH442416 0.6 mg/kg) was “largely blocked”, the physical activity (mice [4]; SCH442416 0.6 mg/kg, i.p., by itself, p=0.078) was “trended to increase activity” and the Tb (mice [4]; SCH442416 0.6 mg/kg, i.p., by itself, p=0.10) was “trended to increase”. For the same compound, the Tb (mice [4]; [17]) was “increase in Tb”, the locomotor activity (mice [4]; [17]) was “increased locomotor activity” and the Ki (human 5HT2B receptor) was 910 nM. The Ki (mouse A1AR [9]; read-out: mouse Ki, A1AR, mouse) was 765 nM.
For `N.Nc1nc(SCCc2ccc(S(=O)(=O)O)cc2)nc2c1ncn2[C@@H]1O[C@H](CO)[C@@H](O)[C@H]1O` [PSB-0777, 4-[2-[(6-Amino-9-b-D-ribofuranosyl-9H-purin-2-yl)thio]ethyl]benzenesulfonic acid ammonium salt], the Ki [10] is given as 3300 nM, the Ki [11] is given as 4400 nM and the Ki (A2BAR [1]; ref El-Tayeb et al., 2011) is given as over 10000 nM. The energy expenditure (brown adipose tissue) was “increased energy expenditure”, the Ki (A1AR; read-out: rat Ki, A1AR, ref El-Tayeb et al., 2011) was at least 10000 nM and the “A1AR rat: mouse ratio” value (mouse A1AR [2]) was over 500. For the same compound, the Ki (mouse A1AR [2]; [18]) was 18.4 ± 1.1 nM, the Ki (mouse A2AAR; [19]) was 193 ± 28 nM and the “% inhibition at 10 μM, mouse A3AR” value (mouse A3AR [3]; mouse, 10 μM, current results, ± SEM) was 26 ± 1% ^e. The “Tb response (hypothermia)” value (mice [4]; PSB-0777 i.p., Adora2a−/− mice) was “abolished”, the “Tb response (hypothermia)” value (mice [4]; [20]) was “dose-dependent hypothermia” and the physical activity (mice [4]; [20]) was “hypoactivity”.
In the case of `OC[C@H]1O[C@@H](n2cnc3c(NC4CCCC4)ncnc32)[C@H](O)[C@@H]1O` [N^6-cyclopentyladenosine], the “advantage in binding affinity (A1AR vs A3AR)” value (mouse A1AR [9]; A1AR vs A3AR) is given as 2000 fold.
In the case of `CCNC(=O)[C@H]1O[C@@H](n2cnc3c(N)nc(NCCc4ccc(CCC(=O)NCCN)cc4)nc32)[C@H](O)[C@@H]1O` [APEC, 2-[[2-[4-[2-(2-aminoethyl)-aminocarbonyl]ethyl]phenyl]ethylamino]-5′-N-ethyl-carboxamidoadenosine], the “A2BAR (r) activity” value (A2BAR [12]) is given as “inactive (r) ^h”, the Ki (A1AR; read-out: rat Ki, A1AR, ref Kim et al., 1994) is given as 400 nM and the “binding to mouse A1AR better than rat A1AR” value (mouse A1AR [2]; mouse vs rat A1AR) is given as ~ 100 fold. For the same compound, the “A1AR rat: mouse ratio” value (mouse A1AR [2]) was 95, the Ki (mouse A1AR [2]; [18]) was 4.17 ± 0.15 nM and the Ki (mouse A2AAR; [19]) was 3.57 ± 0.22 nM. For the same compound, the Ki (mouse A3AR [3]; read-out: mouse Ki, A3AR, mouse, current results, ± SEM) was 55.1 ± 4.3 nM, the Tb response (mice [4]; APEC 1.7 μg/kg i.p.) was “blunting the handling hyperthermia” and the “Tb response (hypothermia)” value (mice [4]; APEC 50 μg/kg i.p.) was “robust hypothermia”. For the same compound, the physical activity (mice [4]; APEC 50 μg/kg i.p.) was “hypoactivity”, the “Tb response (hypothermia)” value (mice [4]; APEC i.p., Adora1−/−;Adora3−/− mice) was “attenuated” and the “Tb response (hypothermia)” value (mice [4]; APEC i.p., Adora2a−/− mice) was “attenuated”. For the same compound, the “Tb response (hypothermia)” value (mice [4]; APEC i.p., Adora2b−/− mice) was “fully intact”.
For `CCN(CC)CC.Nc1nc2c(cnn2CCCc2ccc(OCc3ccc(S(=O)(=O)O)cc3)cc2)c2nc(-c3ccco3)nn12` [MRS7352, 4-((4-(3-(5-amino-2-(furan-2-yl)-7H-pyrazolo[4,3-e][1,2,4]triazolo[1,5-c]pyrimidin-7-yl)propyl)phenoxy)methyl)benzenesulfonate triethylammonium salt], the physical activity (mice [4]; MRS7352 3 mg/kg, i.p.) was “without affecting physical activity” and the “block of PSB-0777-induced hypothermia” value (mice [4]; MRS7352 3 mg/kg) was “completely blocked”.
In the case of `CCNC(=O)[C@H]1O[C@@H](n2cnc3c(N)nc(NCCc4ccc(CCC(=O)O)cc4)nc32)[C@H](O)[C@@H]1O` [CGS-21680, 2-[p-(2-carboxyethyl)phenethylamino]-5′-N-ethylcarboxamidoadenosine], the brain penetrant ([6]; ref Nikodijevic et al., 1990) is given as “no ^d”, the blood pressure (mice [13]) is given as “caused hypotension” and the food intake (mice [14]) is given as “reduced food intake”. For the same compound, the “metabolic rate (total energy expenditure)” value (mice [14]) was “marked reduction in metabolic rate”, the “time of Tb nadir” value (mice [14]) was ~ 65 minutes and the “time of energy expenditure nadir” value (mice [14]) was ~ 26 minutes. The off-target activities detected [15] was “none”, the hypothermia (mice [16]; CGS-21680, high i.c.v. dose, ref Anderson et al., 1994) was “mild hypothermia” and the hypothermia (mice [16]; CGS-21680, peripheral dosing, ref Eisner et al., 2017) was “mild hypothermia”. The “Tb response (hypothermia)” value (mice [4]; CGS-21680 0.01 mg/kg i.c.v., C57BL/6J mice) was “No hypothermia”, the “Tb response (hypothermia)” value (mice [4]; CGS-21680 0.5 mg/kg, i.p., Adora1−/−;Adora3−/− mice) was “intact” and the “Tb response (hypothermia)” value (mice [4]; CGS-21680 0.5 mg/kg, i.p., Adora2a−/− mice) was “did not cause hypothermia”. For the same compound, the “Tb response (hypothermia)” value (mice [4]; CGS-21680 0.5 mg/kg, i.p., KitW−sh/W−sh mice (lack mast cells)) was “showed a hypothermic response”, the “Tb response (hypothermia)” value (mice [4]; [21]) was “dose-dependent hypothermia” and the physical activity (mice [4]; [21]) was “hypoactivity”.
With `COCCOc1ccc(N2CCN(CCn3ncc4c3nc(N)n3nc(-c5ccco5)nc43)CC2)cc1` [preladenant] the Tb (mice [4]; [22]) was “increase in Tb” and the locomotor activity (mice [4]; [22]) was “increased locomotor activity”.
